Measured values as given in patent publication US7378375B1, “Substituted pyridine herbicides” (Syngenta Crop Protection, Inc., priority 2000, dated 2008).

Test system: Monocotyledonous and dicotyledonous test plants
Test: Post-emergence herbicidal action, greenhouse pot test, sprayed at the 2- to 3-leaf stage, 9-level rating after 2 to 3 weeks
Assay type: in vivo
Parameters: key: 9-level scale: 1 = complete damage, 9 = no effect
Details: 250 g/ha, rated after 2 to 3 weeks, 9-level scale
Procedure: Post-Emergence Herbicidal Action
Monocotyledonous and dicotyledonous test plants are grown in standard soil in pots. At the 2- to 3-leaf stage of the test plants, the test substances are sprayed at optimum dosage (500 l of water/ha) as an aqueous suspension (prepared from a wettable powder (example F3, b) according to WO 97/34485) or emulsion (prepared from an emulsion concentrate (example F1, c) according to WO 97/34485). The test plants are then grown further under optimum conditions in a greenhouse.
After a test period of 2 to 3 weeks, the test is evaluated using a 9-level scale of rating (1=complete damage, 9=no effect). Ratings of 1 to 4 (in particular 1 to 3) mean good to very good herbicidal action.

Row | SMILES | Post-emergence action rating, Abutilon | Post-emergence action rating, Amaranth | Post-emergence action rating, Chenop. | Post-emergence action rating, Digitaria | Post-emergence action rating, Echino. | Post-emergence action rating, Ipopur. | Post-emergence action rating, Panicum | Post-emergence action rating, Xanth.
1 | O=C(C1=C(O)C2CCC(C2)C1=O)c1ccc(C(F)(F)F)nc1COCCO (stereo not drawn) [A856-B52] | 2 | 2 | 1 | 2 | 2 | 1 | 2 | 2
2 | CS(=O)(=O)OCCOCc1nc(C(F)(F)F)ccc1C(=O)C1=C(O)C2CCC(C2)C1=O (stereo not drawn) [A862-B52] | 3 | 2 | 1 | 2 | 3 | 5 | 2 | 2
3 | COCCOCCOCCOCc1nc(C(F)(F)F)ccc1C(=O)C1=C(O)C2CCC(C2)C1=O (stereo not drawn) [A858-B52] | 2 | 1 | 2 | 2 | 2 | 2 | 2 | 2
4 | CC(=O)OCCOCc1nc(C(F)(F)F)ccc1C(=O)C1=C(O)C2CCC(C2)C1=O (stereo not drawn) [A861-B52] | 3 | 2 | 1 | 3 | 5 | 2 | 2 | 2
5 | CN(Cc1nc(C(F)(F)F)ccc1C(=O)c1cnn(C)c1O)S(C)(=O)=O [A864-C5] | 2 | 1 | 1 | 2 | 2 | 2 | 1 | 2
6 | CCOC(C)OCCOCc1nc(C(F)(F)F)ccc1C(=O)C1=C(O)C2CCC(C2)C1=O (stereo not drawn) [A859-B52] | 2 | 2 | 1 | 2 | 2 | 2 | 1 | 2
7 | O=C(C1=C(O)C2CCC(C2)C1=O)c1ccc(C(F)(F)F)nc1COCCOCOCc1ccccc1 (stereo not drawn) [A857-B52] | 2 | 2 | 1 | 2 | 2 | 2 | 2 | 2
8 | O=C(C1=C(O)C2CCC(C2)C1=O)c1ccc(C(F)(F)F)nc1COCCOCc1ccccc1 (stereo not drawn) [A855-B52] | 2 | 2 | 1 | 2 | 2 | 2 | 2 | 2
9 | C[S+]([O-])CCOCc1nc(C(F)(F)F)ccc1C(=O)C1=C(O)C2CCC(C2)C1=O (stereo not drawn) [A818-B52] | 2 | 2 | 1 | 2 | 3 | 2 | 2 | 2
10 | CSc1nnc(SCc2nc(C(F)(F)F)ccc2C(=O)C2=C(O)C3CCC(C3)C2=O)s1 (stereo not drawn) [A829-B52] | 3 | 2 | 2 | 6 | 4 | 4 | 2 | 6
11 | CN(Cc1nc(C(F)(F)F)ccc1C(=O)C1=C(O)C2CCC(C2)C1=O)S(C)(=O)=O (stereo not drawn) [A864-B52] | 2 | 2 | 1 | 2 | 2 | 2 | 2 | 2
12 | CC(C)(C)C(=O)OC1=C(C(=O)c2ccc(C(F)(F)F)nc2COCCO)C(=O)C2CCC1C2 (stereo not drawn) [A856-B112] | 2 | 3 | 1 | 3 | 5 | 3 | 3 | 3
13 | O=C(C1=C(O)C2CCC(C2)C1=O)c1ccc(C(F)(F)F)nc1COCCCOCc1ccccc1 (stereo not drawn) [A863-B52] | 2 | 2 | 1 | 2 | 3 | 3 | 2 | 2
14 | O=C(C1=C(O)C2CCC(C2)C1=O)c1ccc(C(F)(F)F)nc1COCc1cccs1 (stereo not drawn) [A854-B52] | 2 | 1 | 1 | 2 | 2 | 2 | 1 | 2
15 | CSc1nnc(SCc2nc(C(F)(F)F)ccc2C(=O)C2=C(O)CCCC2=O)s1 [A829-B1] | 7 | 2 | 2 | 9 | 7 | 6 | 7 | 4
16 | CCCCCCCC(=O)OCCOCc1nc(C(F)(F)F)ccc1C(=O)C1=C(O)C2CCC(C2)C1=O (stereo not drawn) [A860-B52] | 2 | 2 | 1 | 1 | 2 | 2 | 2 | 2
17 | COc1ccccc1OCc1nc(C(F)(F)F)ccc1C(=O)C1=C(O)C2CCC(C2)C1=O (stereo not drawn) [A33-B52] | 2 | 2 | 1 | 2 | 2 | 2 | 2 | 3
18 | CSCCOCc1nc(C(F)(F)F)ccc1C(=O)C1=C(O)C2CCC(C2)C1=O (stereo not drawn) [A817-B52] | 2 | 2 | 1 | 2 | 2 | 2 | 1 | 2
